Assay results: ChEMBL document CHEMBL1138450, “Carbonic anhydrase activators: activation of human isozymes I, II and IX with phenylsulfonylhydrazido l-histidine derivatives” (Bioorg Med Chem Lett, 2009)

Key:
[1] = biological target: Carbonic anhydrase 9 (Homo sapiens) (UniProt Q16790); test: Activation of human recombinant CA9 catalytic domain by stopped flow CO2 hydration assay
[2] = biological target: Carbonic anhydrase 1 (Homo sapiens) (UniProt P00915); test: Activation of human recombinant CA1 by stopped flow CO2 hydration assay
Chain of Carbonic anhydrase 1 (Homo sapiens) (P00915 2-261 limits assumed): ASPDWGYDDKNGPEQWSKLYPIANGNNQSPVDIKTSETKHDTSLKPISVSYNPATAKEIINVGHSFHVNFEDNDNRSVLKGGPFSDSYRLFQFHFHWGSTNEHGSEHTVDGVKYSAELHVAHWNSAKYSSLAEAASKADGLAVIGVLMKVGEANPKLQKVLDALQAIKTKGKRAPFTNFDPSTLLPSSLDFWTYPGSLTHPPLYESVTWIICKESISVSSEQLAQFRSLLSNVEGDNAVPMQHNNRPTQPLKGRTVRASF

[3] = biological target: Carbonic anhydrase 2 (Homo sapiens) (UniProt P00918); test: Activation of human recombinant CA2 by stopped flow CO2 hydration assay

Compound	KA [1]	KA [2]	KA [3]
Cc1ccc(S(=O)(=O)NNC(=O)[C@@H](N)Cc2c[nH]cn2)cc1	18.1 µM	46.8 µM	25 µM
N[C@@H](Cc1c[nH]cn1)C(=O)NNS(=O)(=O)c1ccc(-c2ccccc2)cc1	28.5 µM	33.1 µM	51.7 µM
N[C@@H](Cc1c[nH]cn1)C(=O)NNS(=O)(=O)c1ccc2ccccc2c1	24.1 µM	63.8 µM	18 µM
CC(C)(C)c1ccc(S(=O)(=O)NNC(=O)[C@@H](N)Cc2c[nH]cn2)cc1	29.8 µM	78.9 µM	45.2 µM
N[C@@H](Cc1c[nH]cn1)C(=O)NNS(=O)(=O)c1ccc(I)cc1	14.1 µM	76.3 µM	0.21 µM
N[C@@H](Cc1c[nH]cn1)C(=O)NNS(=O)(=O)c1ccc(Br)cc1	13.8 µM	55.7 µM	19.6 µM
N[C@@H](Cc1c[nH]cn1)C(=O)NNS(=O)(=O)c1c(F)c(F)c(F)c(F)c1F	30.2 µM	42.5 µM	50.2 µM
N[C@@H](Cc1c[nH]cn1)C(=O)NNS(=O)(=O)c1ccc([N+](=O)[O-])cc1	30.5 µM	54.7 µM	45.6 µM
N#Cc1ccc(S(=O)(=O)NNC(=O)[C@@H](N)Cc2c[nH]cn2)cc1	17.8 µM	40.3 µM	28.7 µM
N[C@@H](Cc1c[nH]cn1)C(=O)NNS(=O)(=O)c1ccc(Cl)cc1	35.4 µM	70.1 µM	6.53 µM
COc1ccc(S(=O)(=O)NNC(=O)[C@@H](N)Cc2c[nH]cn2)cc1	27.4 µM	44.8 µM	38 µM
N[C@@H](Cc1c[nH]cn1)C(=O)NNS(=O)(=O)c1ccc(C(F)(F)F)cc1	22.4 µM	38.9 µM	49.5 µM
N[C@@H](Cc1c[nH]cn1)C(=O)NNS(=O)(=O)c1ccc(F)cc1	19.5 µM	63.4 µM	44.8 µM
